Each structure is given as a SMILES string.

These results are taken from US8399482B2, “6-substituted isoquinolines and isoquinolinones” (Sanofi, priority 2008, dated 2013).

The target in the test is T1, human recombinant ROCK II (Homo sapiens, UniProt O75116).
T1 construct: recombinant human ROCK-II residues 11-552; His6 (N); purchased Millipore GmbH, Schwalbach, Germany
T1 sequence (O75116 11-552): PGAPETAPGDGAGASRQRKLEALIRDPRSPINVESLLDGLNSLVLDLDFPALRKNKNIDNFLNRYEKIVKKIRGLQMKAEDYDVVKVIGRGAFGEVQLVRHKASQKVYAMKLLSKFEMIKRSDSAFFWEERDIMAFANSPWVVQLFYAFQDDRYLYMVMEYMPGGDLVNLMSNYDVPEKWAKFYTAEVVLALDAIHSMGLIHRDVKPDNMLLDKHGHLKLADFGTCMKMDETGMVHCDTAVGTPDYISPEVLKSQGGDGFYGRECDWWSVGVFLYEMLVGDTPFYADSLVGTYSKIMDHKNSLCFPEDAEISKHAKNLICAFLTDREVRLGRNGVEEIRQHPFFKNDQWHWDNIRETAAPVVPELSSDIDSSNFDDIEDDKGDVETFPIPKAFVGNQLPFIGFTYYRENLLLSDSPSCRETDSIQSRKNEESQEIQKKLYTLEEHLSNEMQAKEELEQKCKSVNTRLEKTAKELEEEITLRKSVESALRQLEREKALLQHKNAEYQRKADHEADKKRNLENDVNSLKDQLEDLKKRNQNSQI
Put plainly: Determination of Rho kinase inhibition (ROCK II, Caliper peptide phosphorylation assay). Type of test: biochemical. The settings on record: respective form (salt or free base) as obtained in the examples, 60 min at 32° C. The protocol:
To measure Rho-kinase inhibition, IC50 values were determined according to the following protocol:
Active human recombinant ROCK II (N-terminal His6-tagged recombinant human ROCK-II residues 11-552) was purchased from Millipore GmbH, Schwalbach, Germany. The peptide substrate, Fluorescein-[…]-COOH, was obtained from JPT Peptide Technologies, Berlin, Germany. Adenosine-5′-triphosphate (ATP), bovine serum albumine (BSA), dimethylsulphoxide (DMSO), 4-(2-hydroxyethyl)piperazine-1-ethanesulfonic acid (Hepes), Brij-35, dithiothreitol (DTT) and Pluronic F-68 were purchased from Sigma-Aldrich, Munich, Germany. Tris(hydroxymethyl)-aminomethane (Tris), magnesium chloride, NaOH, 1M HCl and EDTA were obtained from Merck Biosciences, Darmstadt, Germany. “Complete” protease inhibitor was from Roche Diagnostics, Mannheim, Germany. Test compounds were diluted to the appropriate concentrations in buffer 1 (25 mM Tris-HCl, pH 7.4, 5 mM MgCl2, 2 mM DTT, 0.02% (w/v) BSA, 0.01% Pluronic F-68 and 3% DMSO). The ROCK II enzyme was diluted to a concentration of 100 ng/mL in buffer 2 (25 mM Tris-HCl, pH 7.4, 5 mM MgCl2, 2 mM DTT and 0.02% (w/v) BSA). The peptide substrate and ATP were diluted to concentrations of 3 μM and 120 μM, respectively, in the buffer 2. Two μl of the compound solution were mixed with 2 μl of the diluted enzyme in a 384-well small volume microtiter plate (Greiner, Bio-One, Frickenhausen, Germany), and the kinase reaction was initiated by addition of 2 μl of the solution containing peptide substrate and ATP. After 60 min incubation at 32° C., the reaction was stopped by addition of 20 μl of a solution containing 100 mM Hepes-NaOH, pH 7.4, 0.015% (v/v) Brij-35, 45 mM EDTA and 0.227% chip coating reagent 1 (Caliper Lifescience Inc, Hopkinton, Mass.). Phosphorylation of the substrate peptide was then detected on a Caliper 3000 instrument essentially as described by Pommereau et al (J. Biomol. Screening 2004, 9(5), 409-416). Separation conditions were as follows: Pressure −1.3 psi, upstream voltage −1562 V, downstream voltage −500 V, sample sip time 200 ms. Positive controls (buffer 1 instead of compound) and negative controls (buffer 1 instead of compound and buffer 2 instead of ROCK II) were run in parallel on each plate.
The following products/compounds were tested in said assay by using the respective form (salt or free base) obtained as in the examples described above and the following activities were measured
Regarding `CCCC[C@]1(C(N)CC)CC[C@@H](Oc2cc3c(Cc4ccccc4)c[nH]c(=O)c3cc2Cl)CC1` (stereo partly drawn) [Example 39, cis-6-[4-(1-Amino-propyl)-4-butyl-cyclohexyloxy]-4-benzyl-7-chloro-2H-isoquinolin-1-one], the IC50 – broadly, the concentration needed to halve the response being measured – was 100 to 1000 nM. For the compound `CCC(N)C1(COC(C)C)CCC(Oc2cc3cc[nH]c(=O)c3cc2Cl)CC1` (single isomer, unassigned) [Example 20, 6-[4-(1-Amino-propyl)-4-isopropoxymethyl-cyclohexyloxy]-7-chloro-2H-isoquinolin-1-one], the IC50 is 100 to 1000 nM. Consider `CCC(NCC(C)C)[C@]1(CC)CC[C@H](Oc2cc3cc[nH]c(=O)c3cc2Cl)CC1` (stereo partly drawn) [Example 87, cis-7-Chloro-6-[4-ethyl-4-(1-isobutylamino-propyl)-cyclohexyloxy]-2H-isoquinolin-1-one], for which the half-inhibitory concentration (IC50) was 100 to 1000 nM. As to `CCOC1(C(N)CC)CCC(Oc2cc3cc[nH]c(=O)c3cc2Cl)CC1` (mixture of isomers) [Example 60, 6-[4-(1-Amino-propyl)-4-ethoxy-cyclohexyloxy]-7-chloro-2H-isoquinolin-1-one], the IC50 is 10 to 100 nM. On the same count and under the same terms, the value for `CC[C@]1(C(C)N)CC[C@@H](Oc2cc3c(Cc4ccccc4)c[nH]c(=O)c3cc2Cl)CC1` (stereo partly drawn) [Example 81, cis-6-[4-(1-Amino-ethyl)-4-ethyl-cyclohexyloxy]-4-benzyl-7-chloro-2H-isoquinolin-1-one] was 100 to 1000 nM. Take `CCOC[C@]1(C(N)CC)CC[C@@H](Oc2cc3cc[nH]c(=O)c3cc2Cl)CC1` (stereo partly drawn) [Example 71, cis-6-[4-(1-Amino-propyl)-4-ethoxymethyl-cyclohexyloxy]-7-chloro-2H-isoquinolin-1-one]: the half-inhibitory concentration (IC50) is at most 10 nM. For `NC(C(F)(F)F)C1(CC2CC2)CCC(Oc2cc3cc[nH]c(=O)c3cc2Cl)CC1` (single isomer, unassigned) [Example 40, 6-[4-(1-Amino-2,2,2-trifluoro-ethyl)-4-cyclo-propylmethyl-cyclohexyloxy]-7-chloro-2H-isoquinolin-1-one], the half-inhibitory concentration (IC50) was 100 to 1000 nM.

For the compound `CCC(N)C1(C(F)(F)F)CCC(Oc2cc3cc[nH]c(=O)c3cc2Cl)CC1` (single isomer, unassigned) [Example 104, 6-[4-(1-Amino-propyl)-4-trifluoromethyl-cyclohexyloxy]-7-chloro-2H-isoquinolin-1-one], the IC50 was 100 to 1000 nM. In the case of `CCC(N)[C@]1(CC2CCOCC2)CC[C@H](Oc2cc3cc[nH]c(=O)c3cc2Cl)CC1` (stereo partly drawn) [Example 67, cis-6-[4-(1-Amino-propyl)-4-(tetrahydro-pyran-4-ylmethyl)-cyclohexyloxy]-7-chloro-2H-isoquinolin-1-one], the IC50 was 10 to 100 nM.

As for `CC(C)C(N)C1(C(C)C)CCC(Oc2cc3cc[nH]c(=O)c3cc2Cl)CC1` (centres unmarked) [Example 89, 6-[4-(1-Amino-2-methyl-propyl)-4-isopropyl-cyclohexyloxy]-7-chloro-2H-isoquinolin-1-one], the half-maximal inhibitory concentration (IC50) is 100 to 1000 nM. Regarding `CCC(N)[C@]1(C)CC[C@H](Oc2cc3cc[nH]c(=O)c3cc2Cl)CC1` (mixture of isomers) [Example 26, cis-6-[4-(1-Amino-propyl)-4-methyl-cyclohexyloxy]-7-chloro-2H-isoquinolin-1-one], the half-maximal inhibitory concentration (IC50) is at most 10 nM. The same measure, in the same setting: as for `CC(C)C1(C(N)c2nccs2)CCC(Oc2cc3cc[nH]c(=O)c3cc2Cl)CC1` (single isomer, unassigned) [Example 46, 6-[4-(Amino-thiazol-2-yl-methyl)-4-isopropyl-cyclohexyl-oxy]-7-chloro-2H-isoquinolin-1-one], the figure is 100 to 1000 nM; as for `CCC(N)C1(CC(C)C)CCC(Oc2cc3cc[nH]c(=O)c3cc2Cl)CC1` (single isomer, unassigned) [Example 29, 6-[4-(1-Amino-propyl)-4-isobutyl-cyclohexyloxy]-7-chloro-2H-isoquinoIin-1-one], 10 to 100 nM; as for `CCC(N)C1(C2CCOCC2)CCC(Oc2cc3cc[nH]c(=O)c3cc2Cl)CC1` (single isomer, unassigned) [Example 105], 10 to 100 nM. The same measure, in the same setting: the value for `CCC(N)[C@]1(CC)CC[C@H](Oc2c(C)cc3cnccc3c2C)CC1` (stereo partly drawn) [Example 53, cis-1-[4-(5,7-Dimethyl-isoquinolin-6-yloxy)-1-ethyl-cyclohexyl]-propylamine] was 100 to 1000 nM. On the same count and under the same terms, as for `CCC(N)[C@]1(CC)CC[C@H](Oc2c(F)cc3cnccc3c2C)CC1` (stereo partly drawn) [Example 57, cis-1-[1-Ethyl-4-(7-fluoro-5-methyl-isoquinolin-6-yloxy)-cyclohexyl]-propylamine], the figure is 100 to 1000 nM; as for `CCC(N)[C@]1(CC)CC[C@H](Oc2c(F)cc3c(=O)[nH]ccc3c2C)CC1` (stereo partly drawn) [Example 51, cis-6-[4-(1-Amino-propyl)-4-ethyl-cyclohexyloxy]-7-fluoro-5-methyl-2H-isoquinolin-1-one], 100 to 1000 nM.

With `CC[C@]1(C(C)N)CC[C@@H](Oc2c(F)cc3c(=O)[nH]ccc3c2C)CC1` (stereo partly drawn) [Example 79, cis-6-[4-(1-Amino-ethyl)-4-ethyl-cyclohexyloxy]-7-fluoro-5-methyl-2H-isoquinolin-1-one], the IC50 is 100 to 1000 nM. The same measure, in the same setting: the value for `CCC(N)[C@]1(CC)CC[C@H](Oc2cc3ccncc3cc2C)CC1` (stereo partly drawn) [Example 56, cis-1-[1-Ethyl-4-(7-methyl-isoquinolin-6-yloxy)-cyclohexyl]-propylamine] was 100 to 1000 nM. As for `CCC(N)C1(C2CCCC2)CCC(Oc2cc3cc[nH]c(=O)c3cc2Cl)CC1` (single isomer, unassigned) [Example 24, 6-[4-(1-Amino-propyl)-4-cyclopentyl-cyclohexyloxy]-7-chloro-2H-isoquinolin-1-one], the concentration for half-maximal inhibition (IC50) was 10 to 100 nM. On to `CCC(NCc1ccccc1)C1(CC)CCC(Oc2cc3cc[nH]c(=O)c3cc2Cl)CC1` (stereo not drawn) [Example 86, cis-6-[4-(1-Benzylamino-propyl)-4-ethyl-cyclohexyloxy]-7-chloro-2H-isoquinolin-1-one], for which the pIC50 result is listed as “+++++ (6.0 ≦ pIC50 < 7.0)”. In the case of `CC[C@]1(C(C)N)CC[C@@H](Oc2cc3ccncc3cc2Br)CC1` (stereo partly drawn) [Example 82, cis-1-[4-(7-Bromo-isoquinolin-6-yloxy)-1-ethyl-cyclohexyl]-ethylamine], the IC50 is 100 to 1000 nM. As for `NC(c1ccccc1)[C@]1(CC2CC2)CC[C@H](Oc2cc3cc[nH]c(=O)c3cc2Cl)CC1` (stereo partly drawn) [Example 63, cis-6-[4-(Amino-phenyl-methyl)-4-cyclopropylmethyl-cyclohexyloxy]-7-chloro-2H-isoquinolin-1-one], the half-inhibitory concentration (IC50) is 100 to 1000 nM. On the same count and under the same terms, as for `CCC[C@]1(C(C)N)CC[C@@H](Oc2cc3ccnc(N)c3cc2Cl)CC1` (stereo partly drawn) [Example 100, cis-6-[4-(1-Amino-ethyl)-4-propyl-cyclohexyloxy]-7-chloro-isoquinolin-1-ylamine], the figure is 100 to 1000 nM.

For `CCCCNC(CC)[C@]1(CC)CC[C@H](Oc2cc3cc[nH]c(=O)c3cc2Cl)CC1` (stereo partly drawn) [Example 88, cis-6-[4-(1-Butylamino-propyl)-4-ethyl-cyclohexyloxy]-7-chloro-2H-isoquinolin-1-one], the IC50 is 100 to 1000 nM.

For `CCC1(C(N)CCOC)CCC(Oc2cc3cc[nH]c(=O)c3cc2Cl)CC1` (single isomer, unassigned) [Example 98, 6-[4-(1-amino-3-methoxy-propyl)-4-ethyl-cyclohexyloxy]-7-chloro-2H-isoquinolin-1-one], the IC50 is 10 to 100 nM.
